What all share (format): in vivo, mouse
Experiment [1] deals with pulmonary fibrosis model mice (intratracheal bleomycin). Description: Amount of hydroxyproline in the lungs of bleomycin-induced pulmonary fibrosis model mice, preventive dosing (Example 1). The settings on record: preventive: oral from the day after bleomycin exposure, FIG. 2; for hydroxyproline in the lung as compared to the control group: compound A 50 mg/kg/day, losartan 50 mg/kg/day, lungs at day 21, Dunnett test. As to the method: (§1) 6-week-old male ICR mice (Japan SLC, Inc.) were exposed to bleomycin (Nippon Kayaku Co., Ltd.) (1.5 mg/kg) dissolved in physiological saline in the trachea to prepare pulmonary fibrosis model mice.
(§2) Investigation was conducted in mice not exposed to bleomycin (exposed to physiological saline in the trachea) in the normal group (6 mice), and pulmonary fibrosis model mice exposed to bleomycin in the trachea divided into 4 groups (control, compound A 50 mg/kg/day, losartan 50 mg/kg/day, and pirfenidone 400 mg/kg/day; 10 mice in each group). From the day after exposure to bleomycin, a 0.5% aqueous solution of methylcellulose was orally administered (administered twice a day) to the normal group and the control group, the sample solution of compound A prepared above was orally administered (administered once a day) to the compound A administration group, the sample solution of losartan prepared above was orally administered (administered once a day) to the losartan administration group, and the sample solution of pirfenidone prepared above was orally administered (administered twice a day) to the pirfenidone administration group, respectively. Twenty-one days after the bleomycin exposure, the mice were anesthetized and whole lung tissues were extracted.
The lung tissue extracted from the mouse was homogenized in a PBS solution, then mixed with an equal volume of 12N hydrochloric acid in a tube, and incubated at 110° C. for 20 to 24 hours. After the incubation, the solution was volatilized by opening the tube and continuing the incubation. […] 10 μL of the sample was added with 100 μL of chloramine T solution (1.4% chloramine T, 10% n-propanol, 80% citrate acetate buffer) and incubated at room temperature for 20 minutes, then added with 100 μL of Ehrlich's reagent (1 M p-dimethylamino benzaldehyde, 20% perchloric acid, 50% n-propanol) and incubated at 65° C. for 15 minutes, and the absorbance at 550 nm was measured to quantify the amount of hydroxyproline.

Experiment [2] shares this test system. The experiment can be described thus: Amount of hydroxyproline in the lungs of bleomycin-induced pulmonary fibrosis model mice, therapeutic dosing (Example 2). The settings on record: therapeutic: oral from the 7th day after bleomycin exposure; compound A 50 mg/kg/day, losartan 50 mg/kg/day, pirfenidone 400 mg/kg/day; lungs at day 21; Dunnett test; FIG. 3. As to the method: Model mice were prepared in the same manner as in Example 1.
as §2, with “From the 7th day after” for “From the day after”
The amount of hydroxyproline in the mice was measured by the same method as in Example 1.

Experiment [3] shares this test system. The experiment can be described thus: Lung weight in bleomycin-induced pulmonary fibrosis model mice, preventive dosing (Example 1). The settings on record: male ICR mice, bleomycin 1.5 mg/kg intratracheal, lungs at day 21, FIG. 1; for lung weight as compared to the normal group: oral from the day after exposure, compound A 50 mg/kg/day, losartan 50 mg/kg/day, pirfenidone 400 mg/kg/day. As to the method: as §1, §2
After washing the lung tissue extracted from the mouse with physiological saline, water was removed with a filter paper, and the wet weight was measured.

As for `CCCc1nc(C(C)C)n(-c2ncc(OCC)cn2)c(=O)c1Cc1ccc(-c2ccccc2-c2noc(=O)[nH]2)nc1` [compound A, 3-[2-(5-{[1-(5-ethoxypyrimidin-2-yl)-2-isopropyl-6-oxo-4-propyl-1,6-dihydropyrimidin-5-yl]methyl}pyridin-2-yl)phenyl]-1,2,4-oxadiazol-5(4H)-one], in experiment [1] (compound A 50 mg/kg/day vs losartan 50 mg/kg/day, day 21), the “decrease in hydroxyproline in the lung relative to the losartan administration group” value was “larger decrease than the losartan administration group”. Besides, the “hydroxyproline in the lung as compared to the control group” value in experiment [1] and in experiment [2] was “significant decrease in hydroxyproline in the lung” throughout. The “lung weight as compared with the control group” value in experiment [3] (oral 50 mg/kg/day once a day from the day after exposure, Dunnett test p<0.05) is “significant decrease in lung weight”. Moreover, the “lung weight as compared to the normal group” value in experiment [3] was “no significant increase in lung weight”.
As to `CCCCc1nc(Cl)c(CO)n1Cc1ccc(-c2ccccc2-c2nn[nH]n2)cc1` [losartan], the “hydroxyproline in the lung as compared to the control group” value in experiment [1] is listed as “significant decrease in hydroxyproline in the lung”; in experiment [2], “no significant difference”. In experiment [3], the “lung weight as compared to the normal group” value is “significant increase in lung weight”.
For the molecule `Cc1ccc(=O)n(-c2ccccc2)c1` [pirfenidone], in experiment [2], the “hydroxyproline in the lung as compared to the control group” value was “no significant difference”. The “lung weight as compared to the normal group” value in experiment [3] is “significant increase in lung weight”.
